Reference: ChEMBL document CHEMBL5113383, “Application of the All-Hydrocarbon Stapling Technique in the Design of Membrane-Active Peptides” (J Med Chem, 2022)
In brackets after ≈: the same amount, converted by molar mass. Positions of bridges follow the written chain, without caps; N, C: chain ends. Non-standard residues stand in square brackets, D forms with d. Residues, ends and D or L forms follow the SMILES beside them. S5 = C=CCCC[C@](C)(N)C(=O)O; Nle = CCCC[C@H](N)C(=O)O

Assays:
[1] = system: Candida tropicalis; experiment: Antimicrobial activity against Candida tropicalis 895; type: functional
[2] = system: Candida albicans; experiment: Antimicrobial activity against Candida albicans SC5314; type: functional
[3] = system: Candida albicans; experiment: Antimicrobial activity against Candida albicans 904; type: functional
[4] = system: Candida albicans; experiment: Antimicrobial activity against Candida albicans 901; type: functional
[5] = system: Nakaseomyces glabratus; experiment: Antimicrobial activity against Candida glabrata ATCC 1182; type: functional
[6] = system: Pichia kudriavzevii; experiment: Antimicrobial activity against Candida krusei ATCC 2340; type: functional
[7] = system: Nakaseomyces glabratus; experiment: Antimicrobial activity against Candida glabrata 896; type: functional
[8] = system: Candida parapsilosis; experiment: Antimicrobial activity against Candida parapsilosis ATCC 22010; type: functional; conditions: Lodderomyces parapsilosis
[9] = system: Candida tropicalis; experiment: Antimicrobial activity against Candida tropicalis ATCC 20026; type: functional
[10] = system: [Candida] auris; experiment: Antimicrobial activity against Candida auris 918; type: functional; conditions: Candidozyma auris
[11] = system: [Candida] auris; experiment: Antimicrobial activity against Candida auris 919; type: functional; conditions: Candidozyma auris
[12] = Hemolytic activity in human erythrocytes; type: toxicity, cell-based, Erythrocyte
[13] = Hemolytic activity in human erythrocytes incubated for 1 hr; type: toxicity, cell-based, Erythrocyte; conditions: read-out: Activity
[14] = Hemolytic activity in human erythrocytes incubated for 30 mins; type: toxicity, cell-based, Erythrocyte

| Compound | MIC [1] | MIC [2] | MIC [3] | MIC [4] | MIC [5] | MIC [6] | MIC [7] | MIC [8] | MIC [9] | MIC [10] | MIC [11] | HC50 [12] | hemolysis at 1 h [13] | HC50 at 0.5 h [14] |
| --- | --- | --- | --- | --- | --- | --- | --- | --- | --- | --- | --- | --- | --- | --- |
| CC[C@H](C)[C@@H]1NC(=O)[C@H](CCCCN)NC(=O)[C@@](C)(NC(=O)[C@@H](NC(=O)[C@@H](NC(=O)[C@H](CC(=O)O)NC(=O)[C@H](Cc2ccccc2)NC(=O)[C@H](CC(C)C)NC(=O)CN)[C@@H](C)CC)[C@@H](C)CC)CCC/C=C\CCC[C@@](C)(C(=O)N[C@@H](CO)C(=O)N[C@@H](Cc2ccccc2)C(N)=O)NC(=O)[C@H](C)NC1=O (H-GLFDII[S5]KIA[S5]SF-NH2; staple (Z) 7-11) | > 128 µg/mL | > 64 µg/mL | > 128 µg/mL | > 128 µg/mL | > 128 µg/mL | > 128 µg/mL | > 128 µg/mL | > 128 µg/mL | > 128 µg/mL | > 128 µg/mL | > 128 µg/mL |  |  |  |
| Ac-GLFDIIKKIAESF-NH2 | > 128 µg/mL | > 64 µg/mL | > 128 µg/mL | > 128 µg/mL | > 128 µg/mL | > 128 µg/mL | > 128 µg/mL | > 128 µg/mL | > 128 µg/mL | > 128 µg/mL | > 128 µg/mL |  |  |  |
| CC[C@H](C)[C@H](NC(=O)CN)C(=O)N[C@@H](CCSC)C(=O)N[C@@H](CO)C(=O)N[C@@H](CO)C(=O)N[C@@H](CC(C)C)C(=O)N[C@@H](CCSC)C(=O)N[C@@H](CCCCN)C(=O)N[C@@H](CCCCN)C(=O)N[C@@H](CC(C)C)C(=O)N[C@@]1(C)CCC/C=C\CCC[C@@](C)(C(=O)N[C@@H](CCCCN)C(N)=O)NC(=O)[C@H]([C@@H](C)CC)NC(=O)[C@H](Cc2cnc[nH]2)NC(=O)[C@H](C)NC1=O (H-GIMSSLMKKL[S5]AHI[S5]K-NH2; staple (Z) 11-15) |  |  |  |  |  |  |  |  |  |  |  | 125 µM |  |  |
| OC(Cn1cncn1)(Cn1cncn1)c1ccc(F)cc1F [FLUCONAZOLE] | > 128 µg/mL | 0.5 µg/mL (≈ 1.63 µM) | > 64 µg/mL | > 64 µg/mL | 2 µg/mL (≈ 6.53 µM) | 64 µg/mL (≈ 209 µM) | > 128 µg/mL | 1 µg/mL (≈ 3.27 µM) | 1 µg/mL (≈ 3.27 µM) | > 128 µg/mL | > 128 µg/mL |  |  |  |
| CC(C)[C@@H]1NC(=O)[C@@](C)(NC(=O)[C@H](C)NC(=O)[C@H](CCCCN)NC(=O)CNC(=O)[C@H](Cc2ccccc2)NC(=O)[C@H](CCCCN)NC(=O)[C@H](CCCCN)NC(=O)[C@H](CCCCN)NC(=O)[C@H](CO)NC(=O)[C@H](Cc2cnc[nH]2)NC(=O)[C@]2(C)CCC/C=C\CCC[C@](C)(NC(=O)CN)C(=O)NCC(=O)N[C@@H](CCCCN)C(=O)N[C@@H](Cc3ccccc3)C(=O)N2)CCC/C=C\CCC[C@@](C)(C(=O)N[C@@H](C)C(=O)N[C@@H](CCCCN)C(=O)N[C@@H](CCCCN)C(N)=O)NC(=O)[C@H](CCC(=O)O)NC(=O)CNC1=O (H-G[S5]GKF[S5]HSKKKFGKA[S5]VGE[S5]AKK-NH2; staple (Z) 2-6, 16-20) |  |  |  |  |  |  |  |  |  |  |  | > 400 µM | < 1% |  |
| CC[C@H](C)[C@H](NC(=O)[C@H](CCCCN)NC(=O)[C@]1(C)CCC/C=C\CCC[C@](C)(NC(=O)[C@H](CC(C)C)NC(=O)CNC(C)=O)C(=O)N[C@@H](CC(=O)O)C(=O)N[C@@H]([C@@H](C)CC)C(=O)N[C@@H]([C@@H](C)CC)C(=O)N1)C(=O)N[C@@H](C)C(=O)N[C@@H](CCC(=O)O)C(=O)N[C@@H](CO)C(=O)N[C@@H](Cc1ccccc1)C(N)=O (Ac-GL[S5]DII[S5]KIAESF-NH2; staple (Z) 3-7) | > 128 µg/mL | > 64 µg/mL | > 128 µg/mL | > 128 µg/mL | > 128 µg/mL | > 128 µg/mL | > 128 µg/mL | > 128 µg/mL | > 128 µg/mL | > 128 µg/mL | > 128 µg/mL |  |  |  |
| CC[C@H](C)[C@@H]1NC(=O)[C@@](C)(NC(=O)[C@H](CC(=O)O)NC(=O)[C@H](Cc2ccccc2)NC(=O)[C@H](CC(C)C)NC(=O)CNC(C)=O)CCC/C=C\CCC[C@@](C)(C(=O)N[C@@H](C)C(=O)N[C@@H](CCC(=O)O)C(=O)N[C@@H](CO)C(=O)N[C@@H](Cc2ccccc2)C(N)=O)NC(=O)[C@H](CCCCN)NC(=O)[C@H](CCCCN)NC1=O (Ac-GLFD[S5]IKK[S5]AESF-NH2; staple (Z) 5-9) | 16 µg/mL (≈ 10.4 µM) | 16 µg/mL (≈ 10.4 µM) | > 128 µg/mL | > 128 µg/mL | > 128 µg/mL | > 128 µg/mL | > 128 µg/mL | > 128 µg/mL | > 128 µg/mL | > 128 µg/mL | > 128 µg/mL |  |  |  |
| CCCC[C@@H]1NC(=O)[C@H](CCCCN)NC(=O)[C@H](Cc2c[nH]c3ccccc23)NC(=O)[C@@](C)(NC(=O)[C@@H](N)CCCCN)CCC/C=C\CCC[C@@](C)(C(=O)N[C@@H](CCCCN)C(N)=O)NC1=O (H-K[S5]WK[Nle][S5]K-NH2; staple (Z) 2-6) |  |  |  |  |  |  |  |  |  |  |  |  |  | 3.3 µM |
